According to ChEMBL document CHEMBL4020748, “Benzoxazolinone aryl sulfonamides as potent, selective Nav1.7 inhibitors with in vivo efficacy in a preclinical pain model” (Bioorg Med Chem Lett, 2017):
pIC50: −log10 of the molar value. Values belong to the compound of their own block, whether it stands above or below them. Activity calls are given as the source filed them. The rule behind the calls is not given here.

Assays:
[1] = Apparent permeability of the compound; assay type: physicochemical; details: not told
[2] = Selectivity ratio of IC50 for human Nav1.5alpha expressed in HEK293 cells to human Nav1.7alpha expressed in HEK293 cells
Rattus norvegicus = assay: Unbound plasma clearance in Wistar Hannover rat at 2 mg/kg, iv; assay type: ADME, organism-based; details: in vivo
[3] = Half life in Wistar Hannover rat at 2 mg/kg, iv; assay type: ADME, organism-based; details: in vivo
[4] = Oral bioavailability in Wistar Hannover rat at 10 mg/kg; assay type: ADME, organism-based; details: in vivo
[5] = target: T1, Sodium channel protein type 9 subunit alpha (Homo sapiens, UniProt Q15858); assay: Inhibition of 50% inactivated human Nav1.7alpha expressed in HEK293 cells incubated for 5 mins measured at 10 secs interval by PatchXpress automated electrophysiology method; assay type: cell-based
T1 sequence (Q15858 whole entry): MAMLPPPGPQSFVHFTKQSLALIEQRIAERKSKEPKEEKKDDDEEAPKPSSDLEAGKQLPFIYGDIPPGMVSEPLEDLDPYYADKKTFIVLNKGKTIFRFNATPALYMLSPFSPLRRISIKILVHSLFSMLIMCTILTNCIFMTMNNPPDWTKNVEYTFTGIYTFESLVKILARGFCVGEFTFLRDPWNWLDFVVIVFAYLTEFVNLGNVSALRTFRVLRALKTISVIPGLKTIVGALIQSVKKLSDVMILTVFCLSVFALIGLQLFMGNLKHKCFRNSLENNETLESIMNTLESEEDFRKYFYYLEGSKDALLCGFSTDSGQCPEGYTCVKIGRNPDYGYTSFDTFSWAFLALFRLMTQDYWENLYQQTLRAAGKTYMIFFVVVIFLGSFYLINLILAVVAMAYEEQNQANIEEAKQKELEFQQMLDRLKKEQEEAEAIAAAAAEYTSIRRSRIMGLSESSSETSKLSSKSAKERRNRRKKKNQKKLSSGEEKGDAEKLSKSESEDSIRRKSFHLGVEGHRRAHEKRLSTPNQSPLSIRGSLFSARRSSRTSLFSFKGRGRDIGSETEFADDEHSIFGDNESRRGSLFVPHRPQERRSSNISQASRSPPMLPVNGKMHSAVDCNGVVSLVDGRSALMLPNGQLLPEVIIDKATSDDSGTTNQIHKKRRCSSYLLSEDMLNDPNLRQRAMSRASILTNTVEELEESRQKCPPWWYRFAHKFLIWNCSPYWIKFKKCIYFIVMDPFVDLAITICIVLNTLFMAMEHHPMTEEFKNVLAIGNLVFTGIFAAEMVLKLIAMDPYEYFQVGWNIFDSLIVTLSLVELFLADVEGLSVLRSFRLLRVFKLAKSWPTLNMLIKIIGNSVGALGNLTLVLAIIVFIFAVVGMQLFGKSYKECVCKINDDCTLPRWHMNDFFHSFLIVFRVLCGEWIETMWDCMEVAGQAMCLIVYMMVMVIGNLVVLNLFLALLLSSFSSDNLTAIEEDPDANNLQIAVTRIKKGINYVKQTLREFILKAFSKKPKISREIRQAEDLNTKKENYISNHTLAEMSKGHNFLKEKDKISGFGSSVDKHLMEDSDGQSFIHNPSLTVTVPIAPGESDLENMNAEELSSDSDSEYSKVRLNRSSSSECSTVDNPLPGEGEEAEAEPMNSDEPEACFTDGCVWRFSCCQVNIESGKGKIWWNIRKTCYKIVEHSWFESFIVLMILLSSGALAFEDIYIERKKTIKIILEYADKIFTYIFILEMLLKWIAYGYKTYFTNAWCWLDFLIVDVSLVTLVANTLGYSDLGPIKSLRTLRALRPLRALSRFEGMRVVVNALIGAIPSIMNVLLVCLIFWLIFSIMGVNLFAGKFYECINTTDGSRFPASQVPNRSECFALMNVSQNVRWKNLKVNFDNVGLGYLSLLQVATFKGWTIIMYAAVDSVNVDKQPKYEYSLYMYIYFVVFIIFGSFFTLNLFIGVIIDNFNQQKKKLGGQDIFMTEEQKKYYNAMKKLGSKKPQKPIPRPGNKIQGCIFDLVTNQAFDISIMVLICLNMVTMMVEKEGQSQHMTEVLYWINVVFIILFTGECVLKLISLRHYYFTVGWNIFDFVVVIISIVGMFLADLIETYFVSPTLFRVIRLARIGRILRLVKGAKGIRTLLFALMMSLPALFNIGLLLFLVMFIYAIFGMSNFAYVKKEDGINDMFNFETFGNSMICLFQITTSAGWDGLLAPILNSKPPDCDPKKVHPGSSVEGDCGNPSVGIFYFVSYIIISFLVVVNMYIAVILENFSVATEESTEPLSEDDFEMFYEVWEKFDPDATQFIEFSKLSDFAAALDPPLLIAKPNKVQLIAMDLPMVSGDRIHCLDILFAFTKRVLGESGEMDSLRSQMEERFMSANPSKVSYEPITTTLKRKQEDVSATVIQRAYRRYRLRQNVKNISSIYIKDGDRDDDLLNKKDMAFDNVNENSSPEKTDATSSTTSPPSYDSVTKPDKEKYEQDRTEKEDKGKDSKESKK

Mus musculus [6] = assay: Analgesic activity in C57BL/6 mouse assessed as reduction in formalin-induced nociceptive behavior at 100 mg/kg, sc pretreated for 90 mins followed by formalin challenge measured after 20 to 35 mins; assay type: functional, organism-based
[7] = target: T2, Sodium channel protein type 9 subunit alpha (Mus musculus, UniProt Q62205); assay: Inhibition of 50% inactivated mouse Nav1.7alpha incubated for 5 mins measured at 10 secs interval by PatchXpress automated electrophysiology method
[8] = Ratio of fIC50 for analgesic activity in formalin-induced nociceptive C57BL/6 mouse model assessed as reduction in nociceptive behavior to IC50 for 50% inactivated mouse Nav1.7alpha
Mus musculus [9] = assay: Analgesic activity in C57BL/6 mouse assessed as unbound concentration required for 50% reduction in formalin-induced nociceptive behavior at 100 mg/kg, sc pretreated for 90 mins followed by formalin challenge measured after 20 to 35 mins; assay type: functional
[10] = Fraction unbound in C57BL/6 mouse plasma at 100 mg/kg, sc; assay type: ADME, organism-based
[11] = target: Sodium channel protein type 5 subunit alpha (Homo sapiens, UniProt Q14524); assay: Inhibition of 50% inactivated human Nav1.5alpha expressed in HEK293 cells incubated for 5 mins measured at 10 secs interval by PatchXpress automated electrophysiology method; assay type: ADME, cell-based
Sodium channel protein type 5 subunit alpha, sequence (Q14524 whole entry): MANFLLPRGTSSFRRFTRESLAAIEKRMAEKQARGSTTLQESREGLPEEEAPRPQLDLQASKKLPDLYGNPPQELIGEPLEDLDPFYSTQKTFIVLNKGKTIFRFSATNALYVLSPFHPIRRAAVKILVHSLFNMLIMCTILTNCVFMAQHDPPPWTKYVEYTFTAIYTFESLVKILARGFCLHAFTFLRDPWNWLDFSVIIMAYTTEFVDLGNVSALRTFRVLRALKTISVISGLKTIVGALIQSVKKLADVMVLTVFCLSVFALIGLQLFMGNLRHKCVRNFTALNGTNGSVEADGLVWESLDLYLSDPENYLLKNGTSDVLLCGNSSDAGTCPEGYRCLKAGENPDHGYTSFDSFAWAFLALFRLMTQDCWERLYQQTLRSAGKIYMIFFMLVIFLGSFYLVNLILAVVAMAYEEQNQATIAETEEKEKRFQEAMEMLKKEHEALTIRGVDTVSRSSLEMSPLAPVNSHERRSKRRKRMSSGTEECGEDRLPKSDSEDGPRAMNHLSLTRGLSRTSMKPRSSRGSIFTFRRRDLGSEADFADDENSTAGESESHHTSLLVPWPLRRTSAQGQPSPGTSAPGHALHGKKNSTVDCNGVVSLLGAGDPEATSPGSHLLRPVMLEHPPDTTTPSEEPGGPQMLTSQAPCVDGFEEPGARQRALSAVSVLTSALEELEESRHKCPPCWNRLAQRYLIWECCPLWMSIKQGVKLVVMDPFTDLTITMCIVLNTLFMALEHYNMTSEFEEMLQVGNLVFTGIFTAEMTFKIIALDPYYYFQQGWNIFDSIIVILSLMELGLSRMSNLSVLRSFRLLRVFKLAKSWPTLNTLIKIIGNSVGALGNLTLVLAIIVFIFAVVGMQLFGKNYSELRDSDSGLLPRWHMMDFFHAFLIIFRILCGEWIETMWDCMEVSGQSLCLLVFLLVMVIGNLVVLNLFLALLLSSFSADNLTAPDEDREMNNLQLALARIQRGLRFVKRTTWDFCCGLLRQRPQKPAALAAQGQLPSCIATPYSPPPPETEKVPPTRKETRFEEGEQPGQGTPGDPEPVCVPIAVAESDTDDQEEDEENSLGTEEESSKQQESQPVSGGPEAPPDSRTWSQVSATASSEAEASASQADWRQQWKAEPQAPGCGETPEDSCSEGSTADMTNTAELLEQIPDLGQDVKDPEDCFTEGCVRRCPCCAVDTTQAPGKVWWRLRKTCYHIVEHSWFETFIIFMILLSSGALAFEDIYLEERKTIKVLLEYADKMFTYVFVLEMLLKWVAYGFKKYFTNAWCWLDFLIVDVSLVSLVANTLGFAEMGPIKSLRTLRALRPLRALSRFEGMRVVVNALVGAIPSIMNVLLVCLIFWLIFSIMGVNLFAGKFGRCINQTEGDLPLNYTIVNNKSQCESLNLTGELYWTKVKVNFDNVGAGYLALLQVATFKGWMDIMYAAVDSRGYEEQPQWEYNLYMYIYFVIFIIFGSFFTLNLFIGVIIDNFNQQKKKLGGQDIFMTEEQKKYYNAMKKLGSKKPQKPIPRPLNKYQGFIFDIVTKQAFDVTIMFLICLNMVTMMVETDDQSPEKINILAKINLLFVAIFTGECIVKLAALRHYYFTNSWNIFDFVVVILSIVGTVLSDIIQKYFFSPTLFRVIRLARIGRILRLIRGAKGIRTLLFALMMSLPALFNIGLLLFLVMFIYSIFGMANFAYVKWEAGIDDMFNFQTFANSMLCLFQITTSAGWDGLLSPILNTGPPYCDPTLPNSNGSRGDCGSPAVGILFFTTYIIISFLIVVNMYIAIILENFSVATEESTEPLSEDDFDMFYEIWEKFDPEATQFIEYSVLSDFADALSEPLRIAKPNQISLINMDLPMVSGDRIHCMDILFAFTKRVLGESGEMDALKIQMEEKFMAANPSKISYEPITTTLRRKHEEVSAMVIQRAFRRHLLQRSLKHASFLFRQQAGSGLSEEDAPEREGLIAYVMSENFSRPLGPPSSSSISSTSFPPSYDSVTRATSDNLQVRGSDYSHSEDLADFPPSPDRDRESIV

Mus musculus [12] = assay: Analgesic activity in C57BL/6 mouse assessed as reduction in formalin-induced nociceptive behavior at 100 mg/kg, sc pretreated for 90 mins followed by formalin challenge measured up to 5 mins; assay type: functional, organism-based
[13] = target: Sodium channel protein type 2 subunit alpha (Homo sapiens, UniProt Q99250); assay: Inhibition of Nav1.2 (unknown origin)
[14] = target: Voltage-gated inwardly rectifying potassium channel KCNH2 (Homo sapiens, UniProt Q12809); assay: Activity at human ERG
Voltage-gated inwardly rectifying potassium channel KCNH2, sequence (Q12809 whole entry): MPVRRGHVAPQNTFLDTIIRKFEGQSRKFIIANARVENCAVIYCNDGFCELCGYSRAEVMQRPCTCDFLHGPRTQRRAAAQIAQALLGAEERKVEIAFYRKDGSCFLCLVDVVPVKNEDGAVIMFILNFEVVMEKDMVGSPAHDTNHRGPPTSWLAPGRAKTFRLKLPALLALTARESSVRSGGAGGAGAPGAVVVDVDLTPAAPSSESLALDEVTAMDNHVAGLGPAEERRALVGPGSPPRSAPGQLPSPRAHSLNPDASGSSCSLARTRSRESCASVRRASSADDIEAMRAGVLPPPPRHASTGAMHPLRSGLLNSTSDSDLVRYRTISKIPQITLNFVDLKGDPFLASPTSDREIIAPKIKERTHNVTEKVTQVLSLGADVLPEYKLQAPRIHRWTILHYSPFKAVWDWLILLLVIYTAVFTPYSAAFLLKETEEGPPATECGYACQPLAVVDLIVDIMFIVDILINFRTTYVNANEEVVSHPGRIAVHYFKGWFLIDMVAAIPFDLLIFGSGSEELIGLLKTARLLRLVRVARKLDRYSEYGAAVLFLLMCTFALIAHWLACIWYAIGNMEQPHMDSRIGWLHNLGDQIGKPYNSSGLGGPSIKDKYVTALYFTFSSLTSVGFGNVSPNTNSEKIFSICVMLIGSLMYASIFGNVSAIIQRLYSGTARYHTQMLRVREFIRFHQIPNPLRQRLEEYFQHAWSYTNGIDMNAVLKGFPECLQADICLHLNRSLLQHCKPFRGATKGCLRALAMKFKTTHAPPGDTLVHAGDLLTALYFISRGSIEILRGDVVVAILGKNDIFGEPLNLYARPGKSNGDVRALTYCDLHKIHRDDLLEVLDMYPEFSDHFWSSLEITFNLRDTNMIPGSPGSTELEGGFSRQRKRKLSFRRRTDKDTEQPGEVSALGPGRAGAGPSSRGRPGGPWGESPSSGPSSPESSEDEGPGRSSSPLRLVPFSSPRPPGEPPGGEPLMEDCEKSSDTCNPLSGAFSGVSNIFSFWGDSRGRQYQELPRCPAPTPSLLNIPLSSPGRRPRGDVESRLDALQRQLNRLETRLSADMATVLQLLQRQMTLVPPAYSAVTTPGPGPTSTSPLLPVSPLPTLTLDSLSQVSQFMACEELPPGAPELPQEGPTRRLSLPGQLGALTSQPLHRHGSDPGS

[15] = Ratio of drug level in brain to plasma in rat; assay type: ADME
Mus musculus [16] = assay: Analgesic activity in C57BL/6 mouse assessed as reduction in formalin-induced nociceptive behavior administered subcutaneously pretreated for 90 mins followed by formalin challenge measured up to 30 mins; assay type: functional
[17] = Ratio of drug level in CSF to plasma in rat; assay type: ADME
[18] = target: T2, Sodium channel protein type 9 subunit alpha; assay: Inhibition of NaV1.7 channel in mouse DRG neurons assessed as reduction of TTX-sensitive current by whole cell patch clamp assay
[19] = target: T1, Sodium channel protein type 9 subunit alpha; assay: Inhibition of NaV1.7 channel in human DRG neurons assessed as reduction of TTX-sensitive current by whole cell patch clamp assay
[20] = target: Sodium channel protein type 9 subunit alpha (Rattus norvegicus, UniProt O08562); assay: Inhibition of NaV1.7 channel in rat DRG neurons assessed as reduction of TTX-sensitive sodium current by whole cell patch clamp assay
[21] = target: T3, Nuclear receptor subfamily 1 group I member 2 (Homo sapiens, UniProt O75469); assay: Activity at PXR (unknown origin); assay type: ADME
T3 sequence (O75469 whole entry): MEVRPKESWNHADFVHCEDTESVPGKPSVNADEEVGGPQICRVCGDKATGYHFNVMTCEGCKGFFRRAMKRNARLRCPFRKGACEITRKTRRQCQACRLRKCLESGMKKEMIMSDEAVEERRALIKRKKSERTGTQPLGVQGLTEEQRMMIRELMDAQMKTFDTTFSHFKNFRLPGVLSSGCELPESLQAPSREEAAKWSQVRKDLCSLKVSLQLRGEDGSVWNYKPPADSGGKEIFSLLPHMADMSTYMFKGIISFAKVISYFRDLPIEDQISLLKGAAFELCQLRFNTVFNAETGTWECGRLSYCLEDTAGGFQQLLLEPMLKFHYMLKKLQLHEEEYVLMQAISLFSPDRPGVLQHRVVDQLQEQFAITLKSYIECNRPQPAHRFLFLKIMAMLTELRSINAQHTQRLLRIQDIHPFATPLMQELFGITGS

[22] = Fraction unbound in Wistar Hannover rat plasma; assay type: ADME, cell-free
[23] = target: Voltage-dependent L-type calcium channel subunit alpha-1C (Homo sapiens, UniProt Q13936); assay: Activity at Cav1.2 (unknown origin)
[24] = Activity at CYP450 (unknown origin); assay type: ADME; details: human

Papp [1]: 2.5 ×10⁻⁶ cm/s
CL free (Rattus norvegicus): 300 mL/min/kg
half-life [3]: 1.9 h
bioavailability [4]: 30%
pIC50 [5]: 6.82
SMILES: C[C@H](c1cccc2c1CNCC2)n1c(=O)oc2cc(S(=O)(=O)Nc3cccc(F)n3)c(F)cc21
Ratio IC50 [2]: 210

Papp [1]: 4 ×10⁻⁶ cm/s
pIC50 (Mus musculus [6]): 5.13
CL free (Rattus norvegicus): 170 mL/min/kg
pIC50 [7]: 7.96
half-life [3]: 3 h
bioavailability [4]: 50%
pIC50 [5]: 7.41
fraction unbound [10]: 0.145
SMILES: C[C@H](c1ccccc1CN)n1c(=O)oc2cc(S(=O)(=O)Nc3cccc(F)n3)c(F)cc21
Ratio IC50 [2]: 850
Ratio [8]: 100
fIC50 (Mus musculus [9]): 1.1 µM

pIC50 [5]: 6.72
SMILES: O=c1oc2cc(S(=O)(=O)Nc3ncns3)ccc2n1Cc1cccc2c1CNCC2
Ratio IC50 [2]: >158

SMILES: C[C@H](c1cccc2c1CNCC2)n1c(=O)oc2cc(S(=O)(=O)Nc3cc(Cl)ccn3)c(F)cc21
Ratio IC50 [2]: 88

pIC50 [5]: 6.09
SMILES: O=C1COc2cc(S(=O)(=O)Nc3ncns3)ccc2N1Cc1ccccc1
Ratio IC50 [2]: >37
pIC50 [11]: < 4.52

SMILES: O=S(=O)(Nc1ncns1)c1ccc2c(cnn2Cc2ccccc2)c1
Ratio IC50 [2]: 6

SMILES: O=c1oc2cc(S(=O)(=O)Nc3ncns3)ccc2n1Cc1ccccc1
Ratio IC50 [2]: >62
pIC50 [11]: < 4.52

pIC50 [5]: 6.01
SMILES: O=c1sc2cc(S(=O)(=O)Nc3ncns3)ccc2n1Cc1ccccc1
Ratio IC50 [2]: >31
pIC50 [11]: < 4.52

SMILES: C[C@H](c1ccccc1)n1c(=O)oc2cc(S(=O)(=O)Nc3ncns3)ccc21
Ratio IC50 [2]: 287

Papp [1]: < 2 ×10⁻⁶ cm/s
pIC50 (Mus musculus [6]): 4.64
pIC50 [13]: 7.54
BPR [15]: 1%
CL free (Rattus norvegicus): 360 mL/min/kg
pIC50 [7]: 7.52
half-life [3]: 0.8 h
Ratio [17]: 0%
pIC50 [18]: 7.09
bioavailability [4]: 2%
pIC50 [19]: 7.51
pIC50 [20]: 5.63
pIC50 [5]: 7.68
Activity [21]: Not Active
fraction unbound [22]: 0.133
fraction unbound [10]: 0.065
Activity [24]: Not Active
SMILES: C[C@H](c1cccc2c1CNCC2)n1c(=O)oc2cc(S(=O)(=O)Nc3ncns3)ccc21
Activity (Mus musculus [12]): Active
Activity [14]: Not Active
Ratio IC50 [2]: 1381
Ratio [8]: 50
Activity (Mus musculus [16]): Dose-dependent effect
fIC50 (Mus musculus [9]): 1.5 µM
Activity [23]: Not Active

SMILES: C[C@H](c1cccc2c1CNCC2)n1c(=O)oc2cc(S(=O)(=O)Nc3ccc(F)cn3)c(F)cc21
Ratio IC50 [2]: 108
